According to the supplement of paper PMC8183993:

Columns and labels:
Details in all cases: 24 h
U2OS [1] = assay: mean HPG incorporation (global translation) relative to DMSO (% of DMSO); higher = more protein synthesis
Description: (§1)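 Validation screen in U2OS cells: hits tested at 1, 3 and 10 uM for 24 h in duplicate plates. Translation was read by OPP incorporation (1 h pulse) and HPG incorporation (30 min in methionine-free medium), quantified by high-throughput microscopy alongside nuclei counts. All values are normalised to DMSO (= 100).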

U2OS [2] = assay: nuclei count in OPP assay relative to DMSO (% of DMSO); higher = more viable cells
Description: as §1

U2OS [3] = assay: mean OPP incorporation (global translation) relative to DMSO (% of DMSO); higher = more protein synthesis
Description: as §1

U2OS [4] = assay: nuclei count in HPG assay relative to DMSO (% of DMSO); higher = more viable cells
Description: as §1

COc1ccccc1S(=O)(=O)Nc1ccc2c(c1)CN(C)C(=O)N2 [PFI-1] was tested, and the “mean HPG incorporation” value (U2OS [1]; 1 µM) was 95.7, the “mean HPG incorporation” value (U2OS [1]; 3 µM) was 93.2 and the “mean HPG incorporation” value (U2OS [1]; 10 µM) was 87. The “nuclei count in OPP assay” value (U2OS [2]; 1 µM) was 99.5, the “nuclei count in OPP assay” value (U2OS [2]; 3 µM) was 106 and the “nuclei count in OPP assay” value (U2OS [2]; 10 µM) was 106. For the same compound, the “mean OPP incorporation” value (U2OS [3]; 1 µM) was 83.4, the “mean OPP incorporation” value (U2OS [3]; 3 µM) was 56.2 and the “mean OPP incorporation” value (U2OS [3]; 10 µM) was 45.9. The “nuclei count in HPG assay” value (U2OS [4]; 1 µM) was 103, the “nuclei count in HPG assay” value (U2OS [4]; 3 µM) was 101 and the “nuclei count in HPG assay” value (U2OS [4]; 10 µM) was 101.

Nc1ccc(-c2cccc3c(=O)cc(N4CCOCC4)oc23)cc1 [PI 828] was tested, and the “mean HPG incorporation” value (U2OS [1]; 1 µM) was 73.5, the “mean HPG incorporation” value (U2OS [1]; 3 µM) was 64.3 and the “mean HPG incorporation” value (U2OS [1]; 10 µM) was 41.5. For the same compound, the “nuclei count in OPP assay” value (U2OS [2]; 1 µM) was 101, the “nuclei count in OPP assay” value (U2OS [2]; 3 µM) was 89.8 and the “nuclei count in OPP assay” value (U2OS [2]; 10 µM) was 81.9. For the same compound, the “mean OPP incorporation” value (U2OS [3]; 1 µM) was 92.1, the “mean OPP incorporation” value (U2OS [3]; 3 µM) was 83.1 and the “mean OPP incorporation” value (U2OS [3]; 10 µM) was 54.1. The “nuclei count in HPG assay” value (U2OS [4]; 1 µM) was 108, the “nuclei count in HPG assay” value (U2OS [4]; 3 µM) was 94.6 and the “nuclei count in HPG assay” value (U2OS [4]; 10 µM) was 85.2.

CC[C@@H]1/C=C(\C)C[C@H](C)C[C@H](OC)[C@H]2O[C@@](O)(C(=O)C(=O)N3CCCC[C@H]3C(=O)O[C@H](/C(C)=C/[C@@H]3CC[C@H](Cl)[C@H](OC)C3)[C@H](C)[C@@H](O)CC1=O)[C@H](C)C[C@@H]2OC [Pimecrolimus] was tested, and the “mean HPG incorporation” value (U2OS [1]; 1 µM) was 108, the “mean HPG incorporation” value (U2OS [1]; 3 µM) was 113 and the “mean HPG incorporation” value (U2OS [1]; 10 µM) was 99.6. For the same compound, the “nuclei count in OPP assay” value (U2OS [2]; 1 µM) was 101, the “nuclei count in OPP assay” value (U2OS [2]; 3 µM) was 106 and the “nuclei count in OPP assay” value (U2OS [2]; 10 µM) was 95.5. The “mean OPP incorporation” value (U2OS [3]; 1 µM) was 125, the “mean OPP incorporation” value (U2OS [3]; 3 µM) was 123 and the “mean OPP incorporation” value (U2OS [3]; 10 µM) was 124. For the same compound, the “nuclei count in HPG assay” value (U2OS [4]; 1 µM) was 103, the “nuclei count in HPG assay” value (U2OS [4]; 3 µM) was 101 and the “nuclei count in HPG assay” value (U2OS [4]; 10 µM) was 92.5.

CCOc1cc(C(=O)Nc2ccc(Cl)c(-c3nc4ccccc4[nH]3)c2)cc(OCC)c1OCC [SANT-2] was tested, and the “mean HPG incorporation” value (U2OS [1]; 1 µM) was 97.5, the “mean HPG incorporation” value (U2OS [1]; 3 µM) was 92.7 and the “mean HPG incorporation” value (U2OS [1]; 10 µM) was 74.1. For the same compound, the “nuclei count in OPP assay” value (U2OS [2]; 1 µM) was 102, the “nuclei count in OPP assay” value (U2OS [2]; 3 µM) was 109 and the “nuclei count in OPP assay” value (U2OS [2]; 10 µM) was 104. The “mean OPP incorporation” value (U2OS [3]; 1 µM) was 117, the “mean OPP incorporation” value (U2OS [3]; 3 µM) was 114 and the “mean OPP incorporation” value (U2OS [3]; 10 µM) was 121. The “nuclei count in HPG assay” value (U2OS [4]; 1 µM) was 102, the “nuclei count in HPG assay” value (U2OS [4]; 3 µM) was 105 and the “nuclei count in HPG assay” value (U2OS [4]; 10 µM) was 97.5.

In the case of Oc1ccc(Nc2nc(-c3ccc(Cl)cc3)cs2)cc1 [SKI II], the “mean HPG incorporation” value (U2OS [1]; 1 µM) is reported as 92.6, the “mean HPG incorporation” value (U2OS [1]; 3 µM) is reported as 79.3 and the “mean HPG incorporation” value (U2OS [1]; 10 µM) is reported as 55.7. For the same compound, the “nuclei count in OPP assay” value (U2OS [2]; 1 µM) was 88.5, the “nuclei count in OPP assay” value (U2OS [2]; 3 µM) was 85.3 and the “nuclei count in OPP assay” value (U2OS [2]; 10 µM) was 75.2. For the same compound, the “mean OPP incorporation” value (U2OS [3]; 1 µM) was 91, the “mean OPP incorporation” value (U2OS [3]; 3 µM) was 83.5 and the “mean OPP incorporation” value (U2OS [3]; 10 µM) was 69.5. For the same compound, the “nuclei count in HPG assay” value (U2OS [4]; 1 µM) was 99, the “nuclei count in HPG assay” value (U2OS [4]; 3 µM) was 88.9 and the “nuclei count in HPG assay” value (U2OS [4]; 10 µM) was 72.6.

COc1nc(-c2ccc3c(c2)OCO3)n(-c2ccc(NC(=O)CSc3ccccc3)cc2)n1 [SecinH3] was tested, and the “mean HPG incorporation” value (U2OS [1]; 1 µM) was 107, the “mean HPG incorporation” value (U2OS [1]; 3 µM) was 100 and the “mean HPG incorporation” value (U2OS [1]; 10 µM) was 93.3. The “nuclei count in OPP assay” value (U2OS [2]; 1 µM) was 105, the “nuclei count in OPP assay” value (U2OS [2]; 3 µM) was 105 and the “nuclei count in OPP assay” value (U2OS [2]; 10 µM) was 98.9. The “mean OPP incorporation” value (U2OS [3]; 1 µM) was 106, the “mean OPP incorporation” value (U2OS [3]; 3 µM) was 117 and the “mean OPP incorporation” value (U2OS [3]; 10 µM) was 121. For the same compound, the “nuclei count in HPG assay” value (U2OS [4]; 1 µM) was 107, the “nuclei count in HPG assay” value (U2OS [4]; 3 µM) was 96.8 and the “nuclei count in HPG assay” value (U2OS [4]; 10 µM) was 100.

For CC(C)n1nc(-c2cc3cc(O)ccc3[nH]2)c2c(N)ncnc21 [Torkinib (PP242)], the “mean HPG incorporation” value (U2OS [1]; 1 µM) was 42.9, the “mean HPG incorporation” value (U2OS [1]; 3 µM) was 32.7 and the “mean HPG incorporation” value (U2OS [1]; 10 µM) was 30.9. For the same compound, the “nuclei count in OPP assay” value (U2OS [2]; 1 µM) was 96, the “nuclei count in OPP assay” value (U2OS [2]; 3 µM) was 81.7 and the “nuclei count in OPP assay” value (U2OS [2]; 10 µM) was 74.7. For the same compound, the “mean OPP incorporation” value (U2OS [3]; 1 µM) was 58.4, the “mean OPP incorporation” value (U2OS [3]; 3 µM) was 37.4 and the “mean OPP incorporation” value (U2OS [3]; 10 µM) was 27.3. For the same compound, the “nuclei count in HPG assay” value (U2OS [4]; 1 µM) was 96.6, the “nuclei count in HPG assay” value (U2OS [4]; 3 µM) was 83 and the “nuclei count in HPG assay” value (U2OS [4]; 10 µM) was 76.6.

CCCc1cc(C)[nH]c(=O)c1CNC(=O)c1cc(-c2ccc(N3CCN(C(C)C)CC3)nc2)cc2c1cnn2C(C)C [UNC1999] was tested, and the “mean HPG incorporation” value (U2OS [1]; 1 µM) was 111, the “mean HPG incorporation” value (U2OS [1]; 3 µM) was 119 and the “mean HPG incorporation” value (U2OS [1]; 10 µM) was 77.1. The “nuclei count in OPP assay” value (U2OS [2]; 1 µM) was 89.3, the “nuclei count in OPP assay” value (U2OS [2]; 3 µM) was 93.6 and the “nuclei count in OPP assay” value (U2OS [2]; 10 µM) was 73.9. The “mean OPP incorporation” value (U2OS [3]; 1 µM) was 108, the “mean OPP incorporation” value (U2OS [3]; 3 µM) was 119 and the “mean OPP incorporation” value (U2OS [3]; 10 µM) was 122. The “nuclei count in HPG assay” value (U2OS [4]; 1 µM) was 93.7, the “nuclei count in HPG assay” value (U2OS [4]; 3 µM) was 94.7 and the “nuclei count in HPG assay” value (U2OS [4]; 10 µM) was 80.6.
